#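 1) Cells in 96-well plates. 2) Compound, 48 h, 5 concentrations. 3) Linear interpolation between surrounding doses. 4) Unreached endpoint = highest concentration. At the GI50, growth is halved.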 Activity calls are given as the source filed them. Cut-off read from the data, not from the text of the source: active = GI50 up to about 1.1 µM and inactive = higher.
# Legend:
# Experiment in all cases: inhibition of tumour cell growth, NCI panel, 48 h
# [1] = test system: DU-145
# [2] = test system: ACHN
# [3] = test system: OVCAR-5
# [4] = test system: SK-MEL-5
# [5] = test system: A549
# [6] = test system: KM12
# [7] = test system: Hs-578T
# [8] = test system: CAKI-1
# [9] = test system: 786-0
# [10] = test system: SNB-19
# [11] = test system: MDA-MB-435
# [12] = test system: U-251
# [13] = test system: CCRF-CEM
# [14] = test system: OVCAR-4
# [15] = test system: NCI-H226
# [16] = test system: TK-10
# [17] = test system: SK-OV-3
# [18] = test system: PC-3
# [19] = test system: MDA-N
# [20] = test system: SF-268
Compound,GI50 [1],GI50 [2],GI50 [3],GI50 [4],GI50 [5],GI50 [6],GI50 [7],GI50 [8],GI50 [9],GI50 [10],GI50 [11],GI50 [12],GI50 [13],GI50 [14],GI50 [15],GI50 [16],GI50 [17],GI50 [18],GI50 [19],GI50 [20]
Cc1cccc2c(N)c3cccc(C(=O)NCC[N+](C)(C)Cc4ccccc4[N+](=O)[O-])c3nc12,8.69 µM (inactive),2.31 µM (inactive),13 µM (inactive),7.57 µM (inactive),2.24 µM (inactive),13.4 µM (inactive),6.35 µM (inactive),5.71 µM (inactive),4.22 µM (inactive),14.1 µM (inactive),21.1 µM (inactive),5 µM (inactive),1.78 µM (inactive),8.32 µM (inactive),3.94 µM (inactive),6.62 µM (inactive),12.6 µM (inactive),7.14 µM (inactive),16.9 µM (inactive),5.12 µM (inactive)
Cn1c(=O)n2n(c1=O)Cc1cccc3cccc(c13)C2,> 100 µM (inactive),> 100 µM (inactive),> 100 µM (inactive),> 100 µM (inactive),> 100 µM (inactive),> 100 µM (inactive),> 100 µM (inactive),> 100 µM (inactive),> 100 µM (inactive),> 100 µM (inactive),> 100 µM (inactive),> 100 µM (inactive),> 100 µM (inactive),> 100 µM (inactive),> 100 µM (inactive),> 100 µM (inactive),> 100 µM (inactive),> 100 µM (inactive),> 100 µM (inactive),> 100 µM (inactive)
COc1ccc2nc3cc(Cl)ccc3c(NCCCNCc3cc(OC)c(OC)c(OC)c3)c2c1,1.7 µM (inactive),1.62 µM (inactive),1.69 µM (inactive),1.4 µM (inactive),1.83 µM (inactive),1.64 µM (inactive),2.95 µM (inactive),1.71 µM (inactive),1.4 µM (inactive),1.83 µM (inactive),1.82 µM (inactive),1.76 µM (inactive),0.865 µM (active),1.78 µM (inactive),1.67 µM (inactive),1.73 µM (inactive),1.81 µM (inactive),1.4 µM (inactive),1.82 µM (inactive),1.67 µM (inactive)
CC1C2CC(CC2N)C1(C)C (stereo not given),> 100 µM (inactive),> 100 µM (inactive),> 100 µM (inactive),> 100 µM (inactive),> 100 µM (inactive),> 100 µM (inactive),> 100 µM (inactive),> 100 µM (inactive),> 100 µM (inactive),> 100 µM (inactive),> 100 µM (inactive),> 100 µM (inactive),> 100 µM (inactive),> 100 µM (inactive),> 100 µM (inactive),> 100 µM (inactive),> 100 µM (inactive),> 100 µM (inactive),> 100 µM (inactive),> 100 µM (inactive)
O=C1c2cc([N+](=O)[O-])sc2C(=O)c2cc([N+](=O)[O-])sc21,10.3 µM (inactive),3.85 µM (inactive),7.11 µM (inactive),2.51 µM (inactive),20.2 µM (inactive),3.61 µM (inactive),9.18 µM (inactive),3.76 µM (inactive),2.52 µM (inactive),3.85 µM (inactive),2.1 µM (inactive),1.79 µM (inactive),0.711 µM (active),4.51 µM (inactive),12.3 µM (inactive),5.89 µM (inactive),10.1 µM (inactive),4.6 µM (inactive),2.34 µM (inactive),3.63 µM (inactive)
COC(=O)CNC(=O)C(Cc1ccccc1)NC(=O)c1ccc(-c2ccc(Cl)cc2Cl)o1 (stereo not given),37.6 µM (inactive),18.9 µM (inactive),28.4 µM (inactive),31.6 µM (inactive),25 µM (inactive),24.4 µM (inactive),15.3 µM (inactive),19.2 µM (inactive),16.9 µM (inactive),35.3 µM (inactive),26.9 µM (inactive),28.5 µM (inactive),10.1 µM (inactive),21.5 µM (inactive),48.4 µM (inactive),24.7 µM (inactive),24.9 µM (inactive),21.1 µM (inactive),24.8 µM (inactive),19.8 µM (inactive)
NS(=O)(=O)c1ccc(NC(NC(=O)C(C(F)(F)F)C(F)(F)F)(C(F)(F)F)C(F)(F)F)cc1,> 100 µM (inactive),> 100 µM (inactive),> 100 µM (inactive),> 100 µM (inactive),> 100 µM (inactive),> 100 µM (inactive),> 100 µM (inactive),> 100 µM (inactive),> 100 µM (inactive),> 100 µM (inactive),> 100 µM (inactive),> 100 µM (inactive),> 100 µM (inactive),> 100 µM (inactive),> 100 µM (inactive),0.305 µM (active),> 100 µM (inactive),> 100 µM (inactive),> 100 µM (inactive),> 100 µM (inactive)
C/C=C1/C[C@@H](C)[C@@](C)(O)C(=O)OCC2=CC[N+]3([O-])CC[C@@H](OC1=O)[C@@H]23 (stereo not given in full) [SENECIONINE N-OXIDE],> 100 µM (inactive),> 100 µM (inactive),> 100 µM (inactive),> 100 µM (inactive),> 100 µM (inactive),> 100 µM (inactive),> 100 µM (inactive),> 100 µM (inactive),> 100 µM (inactive),> 100 µM (inactive),> 100 µM (inactive),> 100 µM (inactive),> 100 µM (inactive),> 100 µM (inactive),> 100 µM (inactive),> 100 µM (inactive),> 100 µM (inactive),> 100 µM (inactive),> 100 µM (inactive),> 100 µM (inactive)
Cc1ccc2[nH]c3c(c2c1)C1CCC(C(C)(C)C)CC1C1C(=O)N(c2ccc(Oc4ccccc4)cc2)C(=O)C31 (stereo not given),> 95.3 µM (inactive),22.6 µM (inactive),26.3 µM (inactive),> 92.5 µM (inactive),16.3 µM (inactive),> 100 µM (inactive),2.81 µM (inactive),12.7 µM (inactive),4.72 µM (inactive),16.2 µM (inactive),58.6 µM (inactive),5.61 µM (inactive),2.63 µM (inactive),14.2 µM (inactive),29.4 µM (inactive),20 µM (inactive),17.7 µM (inactive),67.9 µM (inactive),50 µM (inactive),6.75 µM (inactive)
O=C1c2ccccc2C2=Cc3ccccc3C(O)N12 (stereo not given),> 100 µM (inactive),> 100 µM (inactive),> 100 µM (inactive),> 100 µM (inactive),> 100 µM (inactive),> 100 µM (inactive),68.4 µM (inactive),22.7 µM (inactive),> 100 µM (inactive),> 100 µM (inactive),> 100 µM (inactive),> 100 µM (inactive),36.5 µM (inactive),> 100 µM (inactive),> 100 µM (inactive),> 100 µM (inactive),> 100 µM (inactive),> 100 µM (inactive),> 100 µM (inactive),> 100 µM (inactive)
CS(=O)(=O)c1ccc(/N=C/C=C/Nc2ccc(S(C)(=O)=O)cc2)cc1,> 100 µM (inactive),> 100 µM (inactive),> 100 µM (inactive),> 100 µM (inactive),> 100 µM (inactive),27.4 µM (inactive),> 100 µM (inactive),> 100 µM (inactive),> 100 µM (inactive),> 100 µM (inactive),> 100 µM (inactive),> 100 µM (inactive),> 100 µM (inactive),> 100 µM (inactive),> 100 µM (inactive),> 100 µM (inactive),> 100 µM (inactive),> 100 µM (inactive),> 100 µM (inactive),> 100 µM (inactive)
C[C@H](Nc1nc(N)c(N=O)c(=O)n1C)C(=O)O,> 10 µM (inactive),> 10 µM (inactive),> 10 µM (inactive),> 10 µM (inactive),> 10 µM (inactive),> 10 µM (inactive),> 10 µM (inactive),> 10 µM (inactive),> 10 µM (inactive),> 10 µM (inactive),> 10 µM (inactive),> 10 µM (inactive),> 10 µM (inactive),> 10 µM (inactive),> 10 µM (inactive),> 10 µM (inactive),> 10 µM (inactive),> 10 µM (inactive),> 10 µM (inactive),> 10 µM (inactive)
c1ccc(C2C(=P(c3ccccc3)(c3ccccc3)c3ccccc3)P=PC2[P+](c2ccccc2)(c2ccccc2)c2ccccc2)cc1.c1ccc([B-](c2ccccc2)(c2ccccc2)c2ccccc2)cc1 (stereo not given),0.5 µM (active),0.701 µM (active),2.97 µM (inactive),0.191 µM (active),0.422 µM (active),0.351 µM (active),0.679 µM (active),3.66 µM (inactive),0.289 µM (active),0.313 µM (active),0.171 µM (active),0.176 µM (active),2.25 µM (inactive),0.652 µM (active),1.11 µM (active),0.762 µM (active),1.85 µM (inactive),0.471 µM (active),0.139 µM (active),0.695 µM (active)

# — ChEMBL document CHEMBL1201862, “PubChem BioAssay data set” (2004)
